Test: water solubility of tris(isonitrile)copper(I) complexes
Format: physicochemical

water solubility, relative (compared with the tris(isonitrile)copper(I) adducts of U.S. Pat. No. 4,885,100): more soluble
water solubility (sulfate complexes of the present invention, in water): > 100 mg/mL
SMILES: O=S(=O)([O-])[O-].[C-]#[N+]CC(C)(C)OC.[C-]#[N+]CC(C)(C)OC.[C-]#[N+]CC(C)(C)OC.[C-]#[N+]CC(C)(C)OC.[C-]#[N+]CC(C)(C)OC.[C-]#[N+]CC(C)(C)OC.[Cu+].[Cu+] [[Cu(MIBI)3]2 [SO4], tris(1-isocyano-2-methoxy-2-methylpropane)copper(I) sulfate]

Reference: patent publication US5693324A, “Tris(isonitrile) copper(I) sulfates for preparing radionuclide complexes” (The DuPont Merck Pharmaceutical Company, priority 1995, dated 1997)
